In patent US6362197B1, “Compositions and method for treatment of cough” (Cardiome Pharma Corp., priority 1998, dated 2002):

Experiments:
[1] = test system: citric acid-induced cough responses; assay: Citric acid aerosol-induced cough in conscious guinea-pigs, 5 min aerosol pre-treatment; type: in vivo, guinea-pig; settings: for Mean latency of cough: time to onset of first cough after initiation of citric acid aerosol: 5 min pre-treatment; for Mean latency of cough: time to onset of first cough after initiation of citric acid aerosol / Total coughs: number of coughs over 15 min following initiation of 1M citric acid aerosol: mean ± SEM; for Inhibition of cough responses compared with matched vehicle pre-treated guinea pigs: Example 2, aerosol pre-treatment immediately before citric acid exposure; for Anti-tussive activity (in words): Example 2, experiment similar to Example 1
Excerpt: Male albino Dunkin-Hartley strain guinea-pigs (weight 300-400 g) were supplied by Harlan UK Ltd., Bicester, Oxon, UK.
The method used was modified from that described by Adcock J. J., Schneider C. and Smith T. W., “Effects of Morphine and a Novel Opioid Pentapeptide BW443C, on Cough, Nociception and Ventilation in the Unanaesthetized Guinea-pig”, Br. J. Pharmacol., 93, 93-100 (1988). Individual conscious guinea-pigs were placed unrestrained into a sealed purpose built perspex exposure chamber (3,000 cm^3 volume) and allowed to acclimatize prior to aerosol administration.
Cylinder air was introduced into the exposure chamber at a flow rate of 1 liter/min, maintained by a needle valve and monitored by a rotameter. From the rotameter the air passed through the cup of an ultrasonic nebulizer (DeVilbis UltraNeb 2000) which was used to generate aerosols of drug or citric acid at 0.15 ml/min. A Fleisch pneumotachograph, connected to a differential pressure transducer (Grass model PT5) was attached to the outflow from the exposure chamber and provided a measurement of airflow from the chamber. The differential pressure transducer was connected to a Grass polygraph from which a hard copy record was produced. The output from the polygraph was directed to a computerized data acquisition system (Poh-Ne-Mah) for real time recording of data. A tie-clip microphone was placed in the exposure chamber and connected via a pre-amplifier to a loudspeaker output to provide the observer with an audio monitor of responses.
Cough responses were induced by exposure to an aerosol of citric acid (1M) for 10 minutes. Animals were continuously monitored by trained observer, and the number of coughs were counted during a 15 minute period from commencement of the citric acid aerosol administration.
The three types of response were differentiated primarily by sound and visual observation. […] Data recorded for individual guinea-pigs on the Poh-Ne-Mah system was stored on an optical disk. Each cough was marked on the Grass polygraph paper trace, and from these record numbers, frequency and time of onset of coughs were determined. The cough response was defined by a characteristic coughing sound and behavior, associated with a marked biphasic pressure change.
Quantities of drugs were weighed out and dissolved in a vehicle. Equal volumes were aliquotted into sample tubes before being passed, together with another sample tube containing the same volume of vehicle, to an independent observer for coding. Pre-treatments were matched by concentration together with a vehicle control group. Five guinea-pigs were randomly allocated to each treatment group. […] The sequence of pre-treatment administration was determined according to a 4×4 Latin Square design.
Data presented as the mean ±SEM number of coughs produced by individual guinea-pigs within each group during the 15 minute observation period or mean±SEM latency of cough were analyzed using one way analysis of variance to compare mean responses between matched groups of animals (doses) and between unmatched groups (treatments) followed by the Tukey-Kramer multiple comparison test where appropriate.

[2] = test system: citric acid-induced cough responses; assay: Duration of anti-tussive effect against citric acid-induced cough, pre-treatment at various times; type: in vivo, guinea pig; settings: 10 mg/ml aerosol
Procedure: Test agents or vehicle were administered as aerosol pre-treatments (10 mg/ml, 5 minute duration) at 5 minutes, 30 minutes, 1 hour, 2 hours and 4 hours prior to induction of cough responses by citric acid aerosol.

[3] = test system: capsaicin aerosol-induced cough; assay: Capsaicin aerosol-induced cough in conscious guinea pigs, 5 min aerosol pre-treatment; type: in vivo, guinea pig; settings: for Reduction of number of capsaicin-induced cough responses compared with matched vehicle: 5 minute pre-treatment; for Change of mean latency of cough onset: capsaicin-induced cough
[4] = test system: citric acid-induced cough responses; assay: Therapeutic aerosol treatment after induction of cough by citric acid aerosol; type: in vivo, guinea pig; settings: aerosol 10 mg/ml for 5 min, given 2 minutes after citric acid exposure began
Procedure: Vehicle or test agents were administered as aerosols (10 mg/ml; 5 minute duration) 2 minutes after exposure to citric acid aerosol began. Cough responses were recorded during a 15 minute observation period (t=0 to t=15 min.) from initiation of citric acid exposure.

[5] = test system: citric acid-induced cough responses; assay: Citric acid-induced cough responses in ozone-exposed conscious rabbits; type: in vivo, rabbit; settings: rabbits exposed to ozone 3 ppm 1 hour, aerosol 10 mg/ml, citric acid 1.6 M, 10 minute count; vehicle 22.0±5.1
Procedure: Investigation of Antitussive Activity of Aerosolized Compound 1 on Citric Acid-induced Cough Responses in Conscious Rabbits
Twenty-two male New Zealand white rabbits were randomly allocated to either of two groups of 11 rabbits.
Pairs of rabbits (control versus test) were placed in individual exposure chambers with an airflow of 5 liter/min through the chambers.
Each rabbit was exposed to ozone (3 ppm) for 1 hour.
The rabbits were then immediately exposed to aerosols of either vehicle (chamber 1) or Compound 1 (10 mg/ml, chamber 2) at a nebulization rate of 0.9 ml/min.
Cough responses were induced with citric acid aerosol (1.6 M).
Coughs were counted during the 10 minute exposure to citric acid.

## C[N+](C)(CC(=O)Nc1ccccc1)CC(=O)Nc1ccccc1.[Cl-] [Compound 1, N,N-Bis-(phenylcarbamoylmethyl)dimethylammonium chloride]
[1]; aerosol conc. 0.1 mg/ml
  Percentage reduction of the cough response compared with matched vehicle control groups: (25.3%)
  Mean latency of cough: time to onset of first cough after initiation of citric acid aerosol: 88 ± 6 s
  Total coughs: number of coughs over 15 min following initiation of 1M citric acid aerosol: 22.4 ± 6.0
[1]; aerosol conc. 1.0 mg/ml
  Cough frequency (in words): frequency of coughs was reduced
  Percentage reduction of the cough response compared with matched vehicle control groups: (40.4%)
  Mean latency of cough: time to onset of first cough after initiation of citric acid aerosol: 103 ± 11 s
  Total coughs: number of coughs over 15 min following initiation of 1M citric acid aerosol: 16.8 ± 4.0
[1]; aerosol conc. 10 mg/ml
  Guinea-pigs in the group with cough responses completely inhibited: 4 of the 5
  Latency of cough onset (in words): prolonged the latency of cough onset
  Percentage reduction of the cough response compared with matched vehicle control groups: (97.6%)
  Sneezing in animals that did not cough: marked absence of sneezing
  Mean latency of cough: time to onset of first cough after initiation of citric acid aerosol: 778 ± 137^-- seconds
  Total coughs: number of coughs over 15 min following initiation of 1M citric acid aerosol: 0.6 ± 0.6^--
[2]; pre-treatment 30 minutes before citric acid
  Inhibition of cough responses: 63%
[2]; pre-treatment 60 minutes before citric acid
  Inhibition of cough responses: 60.7%
[2]; pre-treatment 2 hours before citric acid
  Inhibition of cough responses: 44.0%
[2]; pre-treatment 4 hours before citric acid
  Reduction in mean number of citric acid-induced cough responses: 15%
[2]; pre-treatment immediately before citric acid exposure
  Inhibition of cough responses compared with matched vehicle pre-treated guinea pigs: 84.9%
[2]; pre-treatment immediately prior to citric acid exposure
  Increase of latency of cough onset: 3.3 fold
[3]; aerosol 10 mg/ml
  Reduction of number of capsaicin-induced cough responses compared with matched vehicle: 25%
  Change of mean latency of cough onset: no significant effect
[3]; aerosol 30 mg/ml
  Reduction of number of capsaicin-induced cough responses compared with matched vehicle: 76.9%
  Change of mean latency of cough onset: 2.1 fold
[4]
  Inhibition of number of cough responses between t=2 and t=10 minutes: 70.8%
[4]; t=0 to t=15 min
  Inhibition of total number of cough responses during the 15 minute observation period compared with matched vehicle: 63.8%
[5]
  Number of citric acid-induced cough responses, mean ± SEM: 2.7±0.9 coughs
other
  melting point: 177 to 178 °C

## Cc1cccc(C)c1NC(=O)C[N+](C)(C)C.[Cl-] [Compound 2, N-(2,6-dimethylphenylcarbamoylmethyl) trimethylammonium chloride]
[1]
  Inhibition of cough responses compared with matched vehicle pre-treated guinea pigs: over 80%
  Anti-tussive activity (in words): effective

## CC[N+](CC)(CC)CC(=O)Nc1c(C)cccc1C.[Cl-] [Compound 3, N-(2,6-dimethylphenylcarbamoylmethyl) triethylammonium chloride]
[1]
  Inhibition of cough responses compared with matched vehicle pre-treated guinea pigs: over 70%
  Anti-tussive activity (in words): effective

## CCN(CC)CC(=O)Nc1c(C)cccc1C [Lidocaine, lidocaine, reference compound]
[3]; aerosol 10 mg/ml
  Reduction of number of capsaicin-induced cough responses compared with matched vehicle: 42.2%
  Change of mean latency of cough onset: 1.2 fold
[3]; aerosol 30 mg/ml
  Reduction of number of capsaicin-induced cough responses compared with matched vehicle: 10.3%
  Change of mean latency of cough onset: 0.8 fold
